Reference: ChEMBL document CHEMBL5046278, “Synthesis and Evaluation of Novel Tetrahydronaphthyridine CXCR4 Antagonists with Improved Drug-like Profiles” (J Med Chem, 2022)

Assays:
[1] = Permeability of compound at pH 5.5 incubated for 4 hrs by PAMPA assay; type: ADME; conditions: read-out: permeability
Cytochrome P450 2D6 = Cytochrome P450 2D6 (Homo sapiens, UniProt P10635); assay: Inhibition of recombinant human CYP2D6 using AMMC as substrate preincubated for 30 mins followed by substrate addition measured after 45 mins by fluorescence based assay; type: ADME
Sequence of Cytochrome P450 2D6 (P10635 whole entry): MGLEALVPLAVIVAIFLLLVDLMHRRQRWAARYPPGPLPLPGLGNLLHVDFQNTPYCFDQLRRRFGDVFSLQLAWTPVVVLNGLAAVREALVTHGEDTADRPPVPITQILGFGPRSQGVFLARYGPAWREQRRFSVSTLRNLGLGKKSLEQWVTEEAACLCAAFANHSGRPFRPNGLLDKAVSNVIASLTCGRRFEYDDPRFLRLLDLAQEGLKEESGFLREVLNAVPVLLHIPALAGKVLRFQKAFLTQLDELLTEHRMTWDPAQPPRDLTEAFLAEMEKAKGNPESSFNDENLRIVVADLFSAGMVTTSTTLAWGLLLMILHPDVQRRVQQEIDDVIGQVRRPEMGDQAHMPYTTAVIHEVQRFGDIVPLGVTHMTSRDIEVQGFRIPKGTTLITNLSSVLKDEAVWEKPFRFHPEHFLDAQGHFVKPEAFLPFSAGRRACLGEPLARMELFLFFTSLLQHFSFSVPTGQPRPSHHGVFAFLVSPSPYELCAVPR

[2] = Antagonist activity at human CXCR4 receptor expressed in CCRF-CEM cells assessed as inhibition of CXCL12-induced calcium release by calcium flux assay; type: cell-based
[3] = Permeability of compound at pH 7.4 incubated for 4 hrs by PAMPA assay; type: ADME; conditions: read-out: permeability
[4] = Metabolic stability in rat liver microsomes assessed compound remaining measured after 10 mins in presence of NADPH; type: ADME, Microsome; conditions: read-out: Stability
[5] = Antagonist activity at mAChR (unknown origin) expressed in CCRF-CEM cells assessed as inhibition of calcium release by calcium flux assay; type: cell-based; conditions: Homo sapiens
[6] = Metabolic stability in human liver microsomes assessed compound remaining measured after 10 mins in presence of NADPH; type: ADME, Microsome; conditions: read-out: Stability
[7] = Metabolic stability in mouse liver microsomes assessed compound remaining measured after 10 mins in presence of NADPH; type: ADME, Microsome; conditions: read-out: Stability
[8] = target: T1, Alpha-2A adrenergic receptor (Homo sapiens, UniProt P08913); assay: Inhibition of alpha 2A adrenergic receptor (unknown origin)
T1 sequence (P08913 whole entry): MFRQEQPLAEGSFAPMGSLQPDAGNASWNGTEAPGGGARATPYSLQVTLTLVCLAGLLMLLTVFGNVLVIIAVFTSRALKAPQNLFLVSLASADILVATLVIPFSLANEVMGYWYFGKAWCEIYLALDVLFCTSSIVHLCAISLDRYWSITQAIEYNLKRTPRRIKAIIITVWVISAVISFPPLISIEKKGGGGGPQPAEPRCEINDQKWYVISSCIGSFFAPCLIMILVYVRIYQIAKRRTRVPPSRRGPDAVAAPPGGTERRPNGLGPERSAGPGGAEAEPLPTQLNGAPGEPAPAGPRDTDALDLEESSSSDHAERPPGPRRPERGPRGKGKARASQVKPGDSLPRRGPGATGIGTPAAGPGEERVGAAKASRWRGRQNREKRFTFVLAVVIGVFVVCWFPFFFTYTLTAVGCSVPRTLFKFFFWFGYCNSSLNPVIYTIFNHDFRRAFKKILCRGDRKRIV

[9] = target: T2, Muscarinic acetylcholine receptor M2 (Homo sapiens, UniProt P08172); assay: Inhibition of M2 mAChR receptor (unknown origin)
T2 sequence (P08172 whole entry): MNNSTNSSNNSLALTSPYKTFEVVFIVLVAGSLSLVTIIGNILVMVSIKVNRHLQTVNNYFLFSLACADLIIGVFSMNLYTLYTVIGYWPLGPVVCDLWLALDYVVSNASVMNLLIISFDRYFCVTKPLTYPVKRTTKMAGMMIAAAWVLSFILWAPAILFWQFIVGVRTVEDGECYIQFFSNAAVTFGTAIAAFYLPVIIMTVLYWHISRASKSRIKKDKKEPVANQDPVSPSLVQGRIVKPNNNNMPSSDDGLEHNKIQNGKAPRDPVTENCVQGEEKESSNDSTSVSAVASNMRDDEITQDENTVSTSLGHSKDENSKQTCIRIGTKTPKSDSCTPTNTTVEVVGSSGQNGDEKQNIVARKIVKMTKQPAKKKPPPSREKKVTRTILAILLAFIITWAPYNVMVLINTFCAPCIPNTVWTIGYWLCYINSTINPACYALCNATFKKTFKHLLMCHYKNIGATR

[10] = target: Voltage-gated inwardly rectifying potassium channel KCNH2 (Homo sapiens, UniProt Q12809); assay: Inhibition of human ERG by [3H]]Astemizole binding assay; type: toxicity
Sequence of Voltage-gated inwardly rectifying potassium channel KCNH2 (Q12809 whole entry): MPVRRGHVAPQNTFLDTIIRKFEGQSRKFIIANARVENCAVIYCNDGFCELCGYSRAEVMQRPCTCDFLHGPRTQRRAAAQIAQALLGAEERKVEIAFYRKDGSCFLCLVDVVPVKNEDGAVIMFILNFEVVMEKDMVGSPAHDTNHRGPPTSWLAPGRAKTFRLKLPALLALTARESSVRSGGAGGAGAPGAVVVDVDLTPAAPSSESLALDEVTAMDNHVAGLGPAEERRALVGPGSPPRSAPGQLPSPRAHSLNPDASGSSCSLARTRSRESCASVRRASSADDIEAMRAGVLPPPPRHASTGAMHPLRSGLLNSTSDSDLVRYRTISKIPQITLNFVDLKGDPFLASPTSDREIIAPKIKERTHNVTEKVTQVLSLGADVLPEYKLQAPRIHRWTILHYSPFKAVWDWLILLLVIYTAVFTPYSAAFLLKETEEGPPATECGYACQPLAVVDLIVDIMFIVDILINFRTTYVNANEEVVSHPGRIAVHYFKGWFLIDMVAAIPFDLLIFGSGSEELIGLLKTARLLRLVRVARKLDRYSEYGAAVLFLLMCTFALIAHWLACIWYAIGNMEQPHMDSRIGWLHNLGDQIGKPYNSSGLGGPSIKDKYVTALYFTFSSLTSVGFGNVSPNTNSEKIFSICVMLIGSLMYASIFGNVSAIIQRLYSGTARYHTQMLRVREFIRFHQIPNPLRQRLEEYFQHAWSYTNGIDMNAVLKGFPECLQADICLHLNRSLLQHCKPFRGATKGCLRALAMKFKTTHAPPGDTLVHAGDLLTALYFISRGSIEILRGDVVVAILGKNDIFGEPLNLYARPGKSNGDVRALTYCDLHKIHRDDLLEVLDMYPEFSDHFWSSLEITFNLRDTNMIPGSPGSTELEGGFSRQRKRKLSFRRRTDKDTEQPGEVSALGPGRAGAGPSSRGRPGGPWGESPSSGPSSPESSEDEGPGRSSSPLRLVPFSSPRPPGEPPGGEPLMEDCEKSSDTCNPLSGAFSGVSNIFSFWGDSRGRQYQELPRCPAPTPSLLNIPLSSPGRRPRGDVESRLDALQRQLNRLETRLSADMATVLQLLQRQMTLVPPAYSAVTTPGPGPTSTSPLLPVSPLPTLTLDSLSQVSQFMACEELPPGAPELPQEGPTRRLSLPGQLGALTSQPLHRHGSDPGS

D(2) dopamine receptor = D(2) dopamine receptor (Homo sapiens, UniProt P14416); assay: Inhibition of dopamine D2 receptor (unknown origin)
Sequence of D(2) dopamine receptor (P14416 whole entry): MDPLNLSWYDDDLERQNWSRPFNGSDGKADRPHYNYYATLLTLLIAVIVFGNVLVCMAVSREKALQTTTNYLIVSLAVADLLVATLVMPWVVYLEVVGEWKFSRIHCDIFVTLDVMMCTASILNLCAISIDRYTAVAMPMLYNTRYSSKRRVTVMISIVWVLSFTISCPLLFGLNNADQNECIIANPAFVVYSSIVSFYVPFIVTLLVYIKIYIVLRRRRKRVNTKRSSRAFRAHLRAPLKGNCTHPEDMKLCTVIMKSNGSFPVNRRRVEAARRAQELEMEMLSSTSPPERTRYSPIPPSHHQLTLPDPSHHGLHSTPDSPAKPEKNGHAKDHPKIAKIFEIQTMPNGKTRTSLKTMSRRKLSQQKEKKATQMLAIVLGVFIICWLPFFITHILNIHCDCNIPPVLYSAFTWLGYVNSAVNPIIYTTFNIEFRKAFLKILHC

Mu-type opioid receptor = Mu-type opioid receptor (Homo sapiens, UniProt P35372); assay: Inhibition of mu opioid receptor (unknown origin)
Sequence of Mu-type opioid receptor (P35372 whole entry): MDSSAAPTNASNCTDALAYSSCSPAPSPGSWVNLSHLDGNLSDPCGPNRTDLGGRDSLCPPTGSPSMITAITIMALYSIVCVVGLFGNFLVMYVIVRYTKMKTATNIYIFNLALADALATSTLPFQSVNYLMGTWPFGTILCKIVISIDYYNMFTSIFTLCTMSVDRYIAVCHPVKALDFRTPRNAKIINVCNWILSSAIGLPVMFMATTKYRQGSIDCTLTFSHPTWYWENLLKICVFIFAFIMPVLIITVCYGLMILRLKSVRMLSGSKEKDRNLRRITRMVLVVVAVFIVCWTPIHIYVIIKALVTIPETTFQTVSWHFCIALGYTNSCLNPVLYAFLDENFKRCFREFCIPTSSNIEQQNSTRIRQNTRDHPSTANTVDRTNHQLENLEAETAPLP

[11] = target: Kappa-type opioid receptor (Homo sapiens, UniProt P41145); assay: Inhibition of kappa opioid receptor (unknown origin)
Sequence of Kappa-type opioid receptor (P41145 whole entry): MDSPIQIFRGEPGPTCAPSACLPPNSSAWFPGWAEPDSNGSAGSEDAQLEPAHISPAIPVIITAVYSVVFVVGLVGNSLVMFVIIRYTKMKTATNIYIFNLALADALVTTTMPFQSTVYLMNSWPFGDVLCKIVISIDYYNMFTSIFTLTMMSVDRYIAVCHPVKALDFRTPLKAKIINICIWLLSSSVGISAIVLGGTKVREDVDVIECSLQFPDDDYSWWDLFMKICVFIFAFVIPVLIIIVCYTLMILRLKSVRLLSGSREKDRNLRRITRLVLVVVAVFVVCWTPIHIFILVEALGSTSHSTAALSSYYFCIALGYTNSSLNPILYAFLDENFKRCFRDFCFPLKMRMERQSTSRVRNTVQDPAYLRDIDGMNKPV

[12] = target: T3, Alpha-2C adrenergic receptor (Homo sapiens, UniProt P18825); assay: Inhibition of alpha 2C adrenergic receptor (unknown origin)
T3 sequence (P18825 whole entry): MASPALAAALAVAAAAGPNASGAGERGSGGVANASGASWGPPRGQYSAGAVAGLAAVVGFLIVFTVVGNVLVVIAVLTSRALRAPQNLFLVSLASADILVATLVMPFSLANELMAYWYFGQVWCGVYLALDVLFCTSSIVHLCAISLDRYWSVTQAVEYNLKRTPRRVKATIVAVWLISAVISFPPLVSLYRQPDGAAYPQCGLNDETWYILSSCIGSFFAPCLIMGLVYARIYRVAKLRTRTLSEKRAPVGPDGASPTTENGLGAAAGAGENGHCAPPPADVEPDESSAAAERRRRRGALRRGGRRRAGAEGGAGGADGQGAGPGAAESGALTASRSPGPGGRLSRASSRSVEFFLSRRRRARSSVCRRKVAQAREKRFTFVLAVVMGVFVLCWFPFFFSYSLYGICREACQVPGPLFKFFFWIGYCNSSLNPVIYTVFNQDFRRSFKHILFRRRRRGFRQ

[13] = target: Neuronal acetylcholine receptor subunit alpha-7 (Homo sapiens, UniProt P36544); assay: Inhibition of alpha7 nicotinic acetylcholine receptor (unknown origin)
Sequence of Neuronal acetylcholine receptor subunit alpha-7 (P36544 whole entry): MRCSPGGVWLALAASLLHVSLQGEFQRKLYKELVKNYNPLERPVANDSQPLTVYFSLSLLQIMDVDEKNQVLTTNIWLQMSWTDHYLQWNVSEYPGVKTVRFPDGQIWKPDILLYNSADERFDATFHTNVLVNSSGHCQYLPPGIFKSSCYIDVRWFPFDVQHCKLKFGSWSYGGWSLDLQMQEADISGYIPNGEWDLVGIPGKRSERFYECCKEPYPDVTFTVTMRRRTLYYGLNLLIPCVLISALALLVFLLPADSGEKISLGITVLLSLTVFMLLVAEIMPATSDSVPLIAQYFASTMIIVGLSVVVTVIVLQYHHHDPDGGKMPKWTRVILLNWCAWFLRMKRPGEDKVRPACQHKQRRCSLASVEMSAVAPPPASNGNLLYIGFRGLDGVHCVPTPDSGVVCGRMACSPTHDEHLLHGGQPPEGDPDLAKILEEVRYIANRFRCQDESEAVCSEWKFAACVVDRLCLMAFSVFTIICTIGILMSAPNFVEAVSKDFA

Structure (SMILES) | Papp at 4 h [1] [×10⁻⁶ cm/s] | IC50 (Cytochrome P450 2D6) [µM] | IC50 [2] [µM] | Papp at 4 h [3] [×10⁻⁶ cm/s] | remaining at 10 min [4] [%] | IC50 [5] [µM] | remaining at 10 min [6] [%] | remaining at 10 min [7] [%] | IC50 [8] [µM] | IC50 [9] [µM] | IC50 [10] [µM] | IC50 (D(2) dopamine receptor) [µM] | IC50 (Mu-type opioid receptor) [µM] | IC50 [11] [µM] | IC50 [12] [µM] | IC50 [13] [µM]
NC/C=C\CN(C[C@H]1Cc2ncccc2CN1)[C@H]1CCCc2cccnc21 | 2.8 | 13 | 0.026 | 6.8 | 11 | 0.18 | 85 | 37 | – | – | – | – | – | – | – | –
CN(C[C@H]1Cc2ncccc2CN1)[C@H]1CCCc2cccnc21 | 46 | 2.8 | 0.48 | 130 | 7 | < 17 | 95 | 53 | – | – | – | – | – | – | – | –
NCCCCN(C[C@H]1Cc2nccnc2CN1)[C@H]1CCCc2cccnc21 | 0.2 | > 20 | 0.042 | 0.2 | 50 | < 33 | 84 | 77 | – | – | – | – | – | – | – | –
NCCCCN(C[C@H]1Cc2cccnc2CN1)[C@H]1CCCc2cccnc21 | 0.2 | 4 | 0.012 | 0.6 | 49 | – | 96 | 69 | 1.3 | 30 | 5.4 | 10 | > 30 | 4 | 30 | –
CN(C[C@@H]1Cc2ncccc2CN1)[C@H]1CCCc2cccnc21 | 23 | 2.7 | > 33 | 100 | 1 | < 17 | 100 | 0 | – | – | – | – | – | – | – | –
c1cnc2c(c1)CN[C@@H](CN(CCCCN(C1COC1)C1COC1)[C@H]1CCCc3cccnc31)C2 | 6.2 | > 20 | 3 | 32 | 72 | > 33 | 62 | 33 | – | – | – | – | – | – | – | –
c1cnc2c(c1)CN[C@@H](CN(CCCCNC1CCOCC1)[C@H]1CCCc3cccnc31)C2 | 0.2 | > 20 | 0.0072 | 0.8 | 49 | > 17 | 97 | 35 | > 30 | > 30 | > 50 | > 30 | 20 | 4.3 | > 30 | > 30
CN(C)CCCCN(C[C@H]1Cc2ncccc2CN1)[C@H]1CCCc2cccnc21 | 0.2 | 10 | 0.27 | 24 | 27 | > 17 | 100 | 55 | – | – | – | – | – | – | – | –
c1cnc2c(c1)CN[C@@H](CN(CCCC1CCNCC1)[C@H]1CCCc3cccnc31)C2 | 1.4 | > 20 | 0.035 | 2.4 | 40 | > 33 | 100 | 69 | – | > 30 | 9.3 | 9.8 | > 30 | 4.8 | 2.2 | 17
NC(=O)NC/C=C\CN(C[C@H]1Cc2ncccc2CN1)[C@H]1CCCc2cccnc21 | 0.5 | 20 | 0.46 | 0.2 | 1 | > 17 | 100 | 10 | – | – | – | – | – | – | – | –
